# In patent US20260042731A1, “(2,4-DICHLOROPHENOXY)ACETIC ACID ANALOGS” (CORTEVA AGRISCIENCE LLC, priority 2022, published 2026):
# Where two headings read alike, the source gives them in different places.
# What was measured:
# [1] = test system: Chenopodium album (CHEAL), common lambsquarters; experiment: Postemergence herbicide evaluation, growth of Chenopodium album (CHEAL); assay type: in vivo; settings: Chenopodium album, post-emergence, read-out: Ave. CHEAL, percent reduction in plant size relative to the untreated control
# [2] = test system: Amaranthus rudis (AMATA), tall water hemp; experiment: Postemergence herbicide evaluation, growth of Amaranthus rudis (AMATA); assay type: in vivo; settings: Amaranthus tuberculatus, post-emergence, read-out: Ave. AMATA, percent reduction in plant size relative to the untreated control
# [3] = test system: Ambrosia artemisiifolia (AMBEL), common ragweed; experiment: Postemergence herbicide evaluation, growth of Ambrosia artemisiifolia (AMBEL); assay type: in vivo; settings: Ambrosia artemisiifolia, post-emergence, read-out: AVE. AMBEL, percent reduction in plant size relative to the untreated control
# [4] = test system: weeds ABUTH, AMATA, AMBEL, CHEAL, ERICA; experiment: Postemergence herbicide evaluation, overall average % weed control (ABUTH, AMATA, AMBEL, CHEAL, ERICA); assay type: in vivo; settings: post-emergence, read-out: Overall Ave % Weed Control
# [5] = Volatility of compounds measured by thermogravimetric analysis (TGA); assay type: physicochemical
# [6] = test system: Abutilon theophrasti (ABUTH), velvetleaf; experiment: Postemergence herbicide evaluation, growth of Abutilon theophrasti (ABUTH); assay type: in vivo; settings: Abutilon theophrasti, post-emergence, read-out: AVE. ABUTH, percent reduction in plant size relative to the untreated control
# [7] = test system: glyphosate resistant Conyza canadensis (L.) (ERICA), horseweed; experiment: Postemergence herbicide evaluation, growth of Conyza canadensis (ERICA); assay type: in vivo; settings: Erigeron canadensis, post-emergence, read-out: Ave. ERICA, percent reduction in plant size relative to the untreated control
smiles,measurement,setting,value
"O=C(COc1ccc(Cl)cc1Cl)n1ncc2ccccc21 [Compound D3, 2-(2,4-Dichlorophenoxy)-1-(1H-indazol-1-yl)ethanone]",pest or weed control at 280 g/ha,[1]; 168 h,68%
same,pest or weed control at 560 g/ha,[1]; 168 h,68%
same,pest or weed control at 280 g/ha,[1]; 336 h,63%
same,pest or weed control at 560 g/ha,[1]; 336 h,70%
same,pest or weed control at 280 g/ha,[1]; 504 h,63%
same,pest or weed control at 560 g/ha,[1]; 504 h,70%
same,pest or weed control at 280 g/ha,[2]; 168 h,70%
same,pest or weed control at 560 g/ha,[2]; 168 h,73%
same,pest or weed control at 280 g/ha,[2]; 336 h,73%
same,pest or weed control at 560 g/ha,[2]; 336 h,80%
same,pest or weed control at 280 g/ha,[2]; 504 h,75%
same,pest or weed control at 560 g/ha,[2]; 504 h,78%
same,pest or weed control at 280 g/ha,[3]; 168 h,63%
same,pest or weed control at 560 g/ha,[3]; 168 h,68%
same,pest or weed control at 280 g/ha,[3]; 336 h,75%
same,pest or weed control at 560 g/ha,[3]; 336 h,90%
same,pest or weed control at 280 g/ha,[3]; 504 h,73%
same,pest or weed control at 560 g/ha,[3]; 504 h,95%
same,pest or weed control at 280 g/ha,[4]; 168 h,59%
same,pest or weed control at 560 g/ha,[4]; 168 h,65%
same,pest or weed control at 280 g/ha,[4]; 336 h,64%
same,pest or weed control at 560 g/ha,[4]; 336 h,74%
same,pest or weed control at 280 g/ha,[4]; 504 h,63%
same,pest or weed control at 560 g/ha,[4]; 504 h,73%
same,"TGA Data (rate of weight loss, volatility)",[5],0.03 µg/min
same,pest or weed control at 280 g/ha,[6]; 168 h,30%
same,pest or weed control at 560 g/ha,[6]; 168 h,48%
same,pest or weed control at 280 g/ha,[6]; 336 h,25%
same,pest or weed control at 560 g/ha,[6]; 336 h,43%
same,pest or weed control at 280 g/ha,[6]; 504 h,23%
same,pest or weed control at 560 g/ha,[6]; 504 h,35%
same,pest or weed control at 280 g/ha,[7]; 168 h,63%
same,pest or weed control at 560 g/ha,[7]; 168 h,68%
same,pest or weed control at 280 g/ha,[7]; 336 h,83%
same,pest or weed control at 560 g/ha,[7]; 336 h,85%
same,pest or weed control at 280 g/ha,[7]; 504 h,84%
same,pest or weed control at 560 g/ha,[7]; 504 h,88%
O=C(COc1ccc(Cl)cc1Cl)Nc1nccs1 [Compound D24],pest or weed control at 280 g/ha,"[1]; 168 h, 280 g ae/ha, 7 DAA",82.5%
same,pest or weed control at 560 g/ha,"[1]; 168 h, 560 g ae/ha, 7 DAA",75%
same,pest or weed control at 280 g/ha,"[1]; 336 h, 280 g ae/ha, 14 DAA",90%
same,pest or weed control at 560 g/ha,"[1]; 336 h, 560 g ae/ha, 14 DAA",92.5%
same,pest or weed control at 280 g/ha,"[1]; 504 h, 280 g ae/ha, 21 DAA",90%
same,pest or weed control at 560 g/ha,"[1]; 504 h, 560 g ae/ha, 21 DAA",95%
same,pest or weed control at 280 g/ha,"[2]; 168 h, 280 g ae/ha, 7 DAA",80%
same,pest or weed control at 560 g/ha,"[2]; 168 h, 560 g ae/ha, 7 DAA",85%
same,pest or weed control at 280 g/ha,"[2]; 336 h, 280 g ae/ha, 14 DAA",87.5%
same,pest or weed control at 560 g/ha,"[2]; 336 h, 560 g ae/ha, 14 DAA",85%
same,pest or weed control at 280 g/ha,"[2]; 504 h, 280 g ae/ha, 21 DAA",77.5%
same,pest or weed control at 560 g/ha,"[2]; 504 h, 560 g ae/ha, 21 DAA",92.5%
same,pest or weed control at 280 g/ha,"[3]; 168 h, 280 g ae/ha, 7 DAA",77.5%
same,pest or weed control at 560 g/ha,"[3]; 168 h, 560 g ae/ha, 7 DAA",67.5%
same,pest or weed control at 280 g/ha,"[3]; 336 h, 280 g ae/ha, 14 DAA",80%
same,pest or weed control at 560 g/ha,"[3]; 336 h, 560 g ae/ha, 14 DAA",92.5%
same,pest or weed control at 280 g/ha,"[3]; 504 h, 280 g ae/ha, 21 DAA",100%
same,pest or weed control at 560 g/ha,"[3]; 504 h, 560 g ae/ha, 21 DAA",100%
same,pest or weed control at 280 g/ha,"[4]; 168 h, 280 g ae/ha, 7 DAA",70%
same,pest or weed control at 560 g/ha,"[4]; 168 h, 560 g ae/ha, 7 DAA",70%
same,pest or weed control at 280 g/ha,"[4]; 336 h, 280 g ae/ha, 14 DAA",81.5%
same,pest or weed control at 560 g/ha,"[4]; 336 h, 560 g ae/ha, 14 DAA",84.5%
same,pest or weed control at 280 g/ha,"[4]; 504 h, 280 g ae/ha, 21 DAA",87%
same,pest or weed control at 560 g/ha,"[4]; 504 h, 560 g ae/ha, 21 DAA",91.4%
same,"TGA Data (rate of weight loss, volatility)",[5],0.08298 µg/min
same,pest or weed control at 280 g/ha,"[6]; 168 h, 280 g ae/ha, 7 DAA",40%
same,pest or weed control at 560 g/ha,"[6]; 168 h, 560 g ae/ha, 7 DAA",47.5%
same,pest or weed control at 280 g/ha,"[6]; 336 h, 280 g ae/ha, 14 DAA",55%
same,pest or weed control at 560 g/ha,"[6]; 336 h, 560 g ae/ha, 14 DAA",65%
same,pest or weed control at 280 g/ha,"[6]; 504 h, 280 g ae/ha, 21 DAA",70%
same,pest or weed control at 560 g/ha,"[6]; 504 h, 560 g ae/ha, 21 DAA",70%
same,pest or weed control at 280 g/ha,"[7]; 168 h, 280 g ae/ha, 7 DAA",70%
same,pest or weed control at 560 g/ha,"[7]; 168 h, 560 g ae/ha, 7 DAA",75%
same,pest or weed control at 280 g/ha,"[7]; 336 h, 280 g ae/ha, 14 DAA",95%
same,pest or weed control at 560 g/ha,"[7]; 336 h, 560 g ae/ha, 14 DAA",87.5%
same,pest or weed control at 280 g/ha,"[7]; 504 h, 280 g ae/ha, 21 DAA",97.5%
same,pest or weed control at 560 g/ha,"[7]; 504 h, 560 g ae/ha, 21 DAA",99.5%
O=C(COc1ccc(Cl)cc1Cl)O/N=C/c1ccncc1 [Compound A30],pest or weed control at 280 g/ha,"[1]; 168 h, 280 g ae/ha, 7 DAA",80%
same,pest or weed control at 560 g/ha,"[1]; 168 h, 560 g ae/ha, 7 DAA",80%
same,pest or weed control at 280 g/ha,"[1]; 336 h, 280 g ae/ha, 14 DAA",94%
same,pest or weed control at 560 g/ha,"[1]; 336 h, 560 g ae/ha, 14 DAA",90%
same,pest or weed control at 280 g/ha,"[1]; 504 h, 280 g ae/ha, 21 DAA",98%
same,pest or weed control at 560 g/ha,"[1]; 504 h, 560 g ae/ha, 21 DAA",100%
same,pest or weed control at 280 g/ha,"[2]; 168 h, 280 g ae/ha, 7 DAA",75%
same,pest or weed control at 560 g/ha,"[2]; 168 h, 560 g ae/ha, 7 DAA",94%
same,pest or weed control at 280 g/ha,"[2]; 336 h, 280 g ae/ha, 14 DAA",96%
same,pest or weed control at 560 g/ha,"[2]; 336 h, 560 g ae/ha, 14 DAA",93.5%
same,pest or weed control at 280 g/ha,"[2]; 504 h, 280 g ae/ha, 21 DAA",92.5%
same,pest or weed control at 560 g/ha,"[2]; 504 h, 560 g ae/ha, 21 DAA",99%
same,pest or weed control at 280 g/ha,"[3]; 168 h, 280 g ae/ha, 7 DAA",85%
same,pest or weed control at 560 g/ha,"[3]; 168 h, 560 g ae/ha, 7 DAA",96.5%
same,pest or weed control at 280 g/ha,"[3]; 336 h, 280 g ae/ha, 14 DAA",90%
same,pest or weed control at 560 g/ha,"[3]; 336 h, 560 g ae/ha, 14 DAA",97.5%
same,pest or weed control at 280 g/ha,"[3]; 504 h, 280 g ae/ha, 21 DAA",100%
same,pest or weed control at 560 g/ha,"[3]; 504 h, 560 g ae/ha, 21 DAA",100%
same,pest or weed control at 280 g/ha,"[4]; 168 h, 280 g ae/ha, 7 DAA",78%
same,pest or weed control at 560 g/ha,"[4]; 168 h, 560 g ae/ha, 7 DAA",86.1%
same,pest or weed control at 280 g/ha,"[4]; 336 h, 280 g ae/ha, 14 DAA",91.5%
same,pest or weed control at 560 g/ha,"[4]; 336 h, 560 g ae/ha, 14 DAA",95.5%
same,pest or weed control at 280 g/ha,"[4]; 504 h, 280 g ae/ha, 21 DAA",95.4%
same,pest or weed control at 560 g/ha,"[4]; 504 h, 560 g ae/ha, 21 DAA",98.6%
same,"TGA Data (rate of weight loss, volatility)",[5],0.9679 µg/min
same,pest or weed control at 280 g/ha,"[6]; 168 h, 280 g ae/ha, 7 DAA",62.5%
same,pest or weed control at 560 g/ha,"[6]; 168 h, 560 g ae/ha, 7 DAA",80%
same,pest or weed control at 280 g/ha,"[6]; 336 h, 280 g ae/ha, 14 DAA",77.5%
same,pest or weed control at 560 g/ha,"[6]; 336 h, 560 g ae/ha, 14 DAA",96.5%
same,pest or weed control at 280 g/ha,"[6]; 504 h, 280 g ae/ha, 21 DAA",87.5%
same,pest or weed control at 560 g/ha,"[6]; 504 h, 560 g ae/ha, 21 DAA",99.5%
same,pest or weed control at 280 g/ha,"[7]; 168 h, 280 g ae/ha, 7 DAA",87.5%
same,pest or weed control at 560 g/ha,"[7]; 168 h, 560 g ae/ha, 7 DAA",80%
same,pest or weed control at 280 g/ha,"[7]; 336 h, 280 g ae/ha, 14 DAA",100%
same,pest or weed control at 560 g/ha,"[7]; 336 h, 560 g ae/ha, 14 DAA",100%
same,pest or weed control at 280 g/ha,"[7]; 504 h, 280 g ae/ha, 21 DAA",99%
same,pest or weed control at 560 g/ha,"[7]; 504 h, 560 g ae/ha, 21 DAA",94.5%
